In US20250099475A1, “METHODS OF TREATING HYPERTENSION BY PERIODIC SUPPRESSION OF ALDOSTERONE SYNTHASE” (Mineralys Therapeutics, Inc., priority 2022, published 2025):

Key:
[1] = Phase 1 parts 3 and 4: sex- and age-related effects on PK; assay type: in vivo, human; conditions: single 100-mg dose; not statistically significant
Experimental: Part 3 of the study evaluated the sex-related effects on the safety, tolerability, and PK of Compound A HBr. In 1 cohort of 8 healthy Caucasian women aged 20 to 35 years (inclusive), 6 participants were randomized to receive a single 100-mg dose of Compound A HBr and 2 participants were randomized to receive matching placebo. Compound A HBr or placebo was administered in the fasted state. The results were compared with those in the cohort at the same dose as in Part 1.
Part 4 of the study evaluated the age-related effects on safety, tolerability, and PK of Compound A HBr. In 1 cohort of 8 healthy Caucasian men aged 68 to 80 years, 6 participants were randomized to receive a single 100-mg dose of Compound A HBr and 2 participants were randomized to receive matching placebo. Compound A HBr or placebo were administered in the fasted state. The results were compared with those in the cohort at the same dose as in Part 1.
A linear model was used to analyze log-transformed AUC and Cmax with sex or age as fixed effects. Difference in least square means (LSM) and corresponding 90% CI were back-transformed to obtain the estimates of geometric mean ratios and their CI for females vs. males and ≥65 years vs. <65 years participants.

hERG channel = target: T1, hERG channel (Homo sapiens, UniProt Q12809); test: Effects on hERG current, whole-cell patch-clamp in HEK293 cells; assay type: cell-based
T1 construct: expressed in transfected cells; host or cells: HEK293 cells stably expressing hERG
Experimental: The effects of Compound A on the human ether-à-go-go-related gene (hERG) current were evaluated using the whole-cell patch-clamp method in human embryonic kidney (HEK293) cells stably expressing the hERG channel. Cells were treated with Compound A at concentrations of 1, 3, 10, and 30 μmol/L, positive control (E-4031) at 0.1 μmol/L, or vehicle (0.3 v/v % dimethyl sulfoxide) for 10 minutes.

cardiovascular system = test: Cardiovascular system in telemetered monkeys; assay type: in vivo, cynomolgus monkey; conditions: single oral doses up to 100-mg/kg as free base
Experimental: Effects of Compound A on the cardiovascular system were evaluated with conscious telemetered cynomolgus monkeys. Single doses of 0, 10, 30, or 100 mg/kg of Compound A as free base were orally administered to four male monkeys in a Latin-square design with a 7-day interval between dosing. Blood pressure, heart rate, and electrocardiogram parameters (PR interval, QRS duration, QT interval, and QTcB) were evaluated up to 24 hours after each dosing.

T1 sequence (Q12809 whole entry): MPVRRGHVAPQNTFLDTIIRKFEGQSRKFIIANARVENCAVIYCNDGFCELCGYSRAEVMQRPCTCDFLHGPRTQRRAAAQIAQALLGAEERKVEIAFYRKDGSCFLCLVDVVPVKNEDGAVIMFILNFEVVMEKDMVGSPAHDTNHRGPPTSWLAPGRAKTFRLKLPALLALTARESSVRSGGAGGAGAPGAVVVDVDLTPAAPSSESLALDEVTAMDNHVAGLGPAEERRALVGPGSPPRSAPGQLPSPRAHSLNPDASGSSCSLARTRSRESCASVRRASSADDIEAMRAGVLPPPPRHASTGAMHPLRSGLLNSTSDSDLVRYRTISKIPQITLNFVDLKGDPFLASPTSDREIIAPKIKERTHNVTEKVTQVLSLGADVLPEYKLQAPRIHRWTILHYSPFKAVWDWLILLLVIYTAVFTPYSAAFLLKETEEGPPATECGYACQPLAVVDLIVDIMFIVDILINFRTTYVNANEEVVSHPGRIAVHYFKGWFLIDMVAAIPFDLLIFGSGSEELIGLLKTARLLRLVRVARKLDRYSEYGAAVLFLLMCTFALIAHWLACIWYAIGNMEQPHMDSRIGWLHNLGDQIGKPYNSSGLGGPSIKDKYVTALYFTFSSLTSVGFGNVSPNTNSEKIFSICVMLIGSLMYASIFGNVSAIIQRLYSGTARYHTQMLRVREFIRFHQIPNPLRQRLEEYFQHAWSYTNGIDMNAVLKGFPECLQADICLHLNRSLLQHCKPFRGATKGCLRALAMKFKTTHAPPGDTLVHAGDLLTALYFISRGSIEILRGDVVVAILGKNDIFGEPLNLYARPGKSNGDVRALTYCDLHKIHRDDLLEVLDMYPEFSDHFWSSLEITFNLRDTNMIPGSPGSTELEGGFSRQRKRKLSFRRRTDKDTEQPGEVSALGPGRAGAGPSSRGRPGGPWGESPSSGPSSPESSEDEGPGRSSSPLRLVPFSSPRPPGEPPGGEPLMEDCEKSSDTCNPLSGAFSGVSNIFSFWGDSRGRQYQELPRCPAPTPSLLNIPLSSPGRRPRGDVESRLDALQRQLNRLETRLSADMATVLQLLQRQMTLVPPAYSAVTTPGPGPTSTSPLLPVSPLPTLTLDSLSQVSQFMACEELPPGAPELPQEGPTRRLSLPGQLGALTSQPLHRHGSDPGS

Compound	AUC higher in female than in male participants [1]	AUC lower in men aged ≥65 years vs <65 years [1]	Cmax higher in female than in male participants [1]	Cmax lower in men aged ≥65 years vs <65 years [1]	IC50 (hERG channel)	inhibition at 10 min, 30 μmol/L (hERG channel; human, HEK293 cells stably expressing the hERG channel, 30 μmol/L)	effects on cardiovascular parameters (blood pressure, heart rate, electrocardiogram) (cardiovascular system)
CC(=O)N[C@H]1CC[C@H](NC(=O)CN2CCN(c3nncc(-c4ccc(C)cc4)n3)CC2)CC1 [Compound A HBr]	19%	~12%	25%	approximately 14%			
CC(=O)N[C@H]1CC[C@H](NC(=O)CN2CCN(c3nncc(-c4ccc(C)cc4)n3)CC2)CC1 [Compound A]					> 30 µM	27%	no effects
